# Results from patent US20250332173A1, “COMPOUNDS AND METHODS FOR MODULATING NUCLEIC ACID SPLICING” (REMIX THERAPEUTICS INC., priority 2021, published 2025).
# Where two headings read alike, the source gives them in different places.
# Assays:
# Target C = experiment: RT-qPCR splicing assay panel, Target C canonical junction (CJ) mRNA; assay type: cell-based, human; conditions: Homo sapiens; Table 5 panel; canonical junction qPCR; compound concentration having 50% response in CJ decrease; read-out: Target C IC50 (decrease in CJ mRNA levels)
# In short: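 Cells are plated (A673 allowed 24 h to adhere), dosed with an 11-point 3-fold series topping at 10 uM final, and incubated 24 h at 37 °C. Lysis is followed by cDNA synthesis and qPCR of the CJ transcript, normalized to a housekeeping gene.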
# MYB = experiment: HiBiT protein abundance assay, MYB HiBiT K562 cell line; assay type: cell-based, human; conditions: 24 hours, top dose 10 μM
# In short: (§1)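 Endogenous targets in K562 knock-in lines carried a HiBiT tag and were treated for 24 h at 37 °C with 10-point 3-fold dilutions (top 10 μM final, DMSO ≤0.25%). Abundance was read as lytic Nano-Glo HiBiT luminescence. IC50 came from a four-parameter logistic fit of normalized response.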
# HTT = experiment: HiBiT protein abundance assay, HTT HiBiT K562 cell line; assay type: cell-based, human; conditions: 24 hours, top dose 10 μM
# In short: as §1
# [1] = test system: K562 (human chronic myelogenous leukemia) cells; experiment: Cell Titer Glo 2.0 cell viability assay; assay type: cell-based; conditions: Homo sapiens, K562, 72 h, K562 cells, 72 hours, Cell Titer Glo 2.0; read-out: K562 GI50
# [2] = HiBiT K562 cell line, read-out: Effect on protein abundance, MYB (IC50 category)
# [3] = HiBiT K562 cell line, read-out: Effect on protein abundance, HTT (IC50 category)
SMILES,IC50 (Target C) [µM],IC50 (MYB; [2]) [µM],IC50 (HTT; [3]) [µM],GI50 [1] [µM],"IC50 (MYB; HiBiT lytic detection, modified K562 cells, read-out: Effect on protein abundance, MYB (IC50)) [µM]","IC50 (HTT; HiBiT lytic detection, modified K562 cells, read-out: Effect on protein abundance, HTT (IC50)) [µM]"
Cn1cc2cc(-c3ncc4c(=O)n(C5CCNCC5)ccc4n3)c(O)c(F)c2n1 [Compound 1123],0.1 to 1,< 0.1,< 0.1,< 0.1,,
Cc1cn2nc(-c3ccc4c(=O)n(C5CCNCC5)cnc4c3)cc(C)c2n1 [Compound 181],0.1 to 1,< 0.1,< 0.1,0.1 to 1,,
Cc1cn2cc(-c3cc(O)c4c(=O)n(C5CCNC6(CC6)C5)ncc4c3)cc(Cl)c2n1 (stereo not drawn) [Compound 557],1 to 10,0.1 to 1,< 0.1,0.1 to 1,,
"Cc1cn2nc(-c3ccc4c(=O)n(C5CCNCC5)ccc4c3)cc(-n3ccc(=O)cc3)c2n1 [Compound 551, 6-[2-methyl-8-(4-oxo-1-pyridyl)imidazo[1,2-b]pyridazin-6-yl]-2-(4-piperidyl)isoquinolin-1-one]",0.1 to 1,0.1 to 1,0.1 to 1,0.1 to 1,,
"Cc1cn2nc(-c3ccc4c(=O)n(C5CCNCC5)ccc4c3)cc(Cc3nnn[nH]3)c2n1 [Compound 536, 6-[2-methyl-8-(1H-tetrazol-5-ylmethyl)imidazo[1,2-b]pyridazin-6-yl]-2-(4-piperidyl) isoquinolin-1-one]",> 10,> 10,> 10,> 10,,
Cc1cc(-c2cc(F)c3c(=O)n(C4CCNC5(CC5)C4)ncc3c2)cc2cn(C)nc12 (stereo not drawn) [Compound 554],0.1 to 1,0.1 to 1,< 0.1,0.1 to 1,,
"Cc1cn2nc(-c3ccc4c(=O)n(C5CCNCC5)ccc4c3)cc(CCO)c2n1 [Compound 533, 6-[8-(2-hydroxyethyl)-2-methyl-imidazo[1,2-b]pyridazin-6-yl]-2-(4-piperidyl)isoquinolin-1-one]",1 to 10,< 0.1,0.1 to 1,0.1 to 1,,
"Cc1cn2nc(-c3ccc4c(=O)n(C5CCNCC5)ccc4c3)cc(Cc3nnc[nH]3)c2n1 [Compound 535, 6-[2-methyl-8-(4H-1,2,4-triazol-3-ylmethyl)imidazo[1,2-b]pyridazin-6-yl]-2-(4-piperidyl) isoquinolin-1-one]",> 10,1 to 10,1 to 10,1 to 10,,
"Cc1cn2cc(-c3cc(F)c4c(=O)n([C@@H]5CNC[C@@H]5C)ccc4c3)cc(F)c2n1 [Compound 653, 8-fluoro-6-(8-fluoro-2-methyl-imidazo[1,2-a]pyridin-6-yl)-2-[(3S,4S)-4-methylpyrrolidin-3-yl]isoquinolin-1-one]",> 10,1 to 10,> 10,> 10,,
"Cc1cn2nc(-c3ccc4c(=O)n(C5CCNCC5)ccc4c3)cc(CO)c2n1 [Compound 525, 6-[8-(hydroxymethyl)-2-methyl-imidazo[1,2-b]pyridazin-6-yl]-2-(4-piperidyl) isoquinolin-1-one]",0.1 to 1,< 0.1,< 0.1,0.1 to 1,,
Cc1nc2c(C)cc(-c3cc(F)c4c(=O)n(C5CCNC6(CC6)C5)ncc4c3)cc2o1 (stereo not drawn) [Compound 555],0.1 to 1,0.1 to 1,< 0.1,0.1 to 1,,
Cc1cn2cc(-c3cc(F)c4c(=O)n([C@H]5CNC[C@@H]5F)ccc4c3)cc(F)c2n1 [Compound 644],> 10,1 to 10,> 10,1 to 10,,
CCN1CCC(n2ncc3cc(-c4cc(C)c5nc(C)cn5n4)cc(F)c3c2=O)CC1 [Compound 537],0.1 to 1,0.1 to 1,< 0.1,0.1 to 1,,
"Cc1cn2nc(-c3ccc4c(=O)n(C5CCNCC5)ccc4c3)cc(Oc3ccccc3)c2n1 [Compound 519, 6-(2-methyl-8-phenoxy-imidazo[1,2-b]pyridazin-6-yl)-2-(4-piperidyl)isoquinolin-1-one]",< 0.1,< 0.1,< 0.1,< 0.1,,
Cc1cn2nc(-c3ccn4c(=O)c(C5=CCNCC5)ncc4c3)cc(C)c2n1 [Compound 1182],0.1 to 1,,,0.1 to 1,0.1 to 1,0.1 to 1
